Measurements as given in PubChem BioAssay (NCI).
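Five compound concentrations were applied to cells in 96-well plates for 48 hours; endpoints were derived by simple linear interpolation of the resulting dose-response curve. The concentration for 50% growth inhibition is given as GI50. TGI: concentration producing complete growth inhibition.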

Legend:
Assay in all cases: NCI anticancer screen, dose series, 48 h
OVCAR-5 ovarian = tested on: OVCAR-5 ovarian
OVCAR-4 ovarian = tested on: OVCAR-4 ovarian
SNB-75 CNS = tested on: SNB-75 CNS
SW-620 colon = tested on: SW-620 colon
HL-60(TB) leukemia = tested on: HL-60(TB) leukemia
IGROV1 ovarian = tested on: IGROV1 ovarian
RXF 393 renal = tested on: RXF 393 renal
OVCAR-8 ovarian = tested on: OVCAR-8 ovarian
U251 CNS = tested on: U251 CNS
HCT-15 colon = tested on: HCT-15 colon
KM12 colon = tested on: KM12 colon
CAKI-1 renal = tested on: CAKI-1 renal
MALME-3M melanoma = tested on: MALME-3M melanoma
HS 578T breast = tested on: HS 578T breast
HCC-2998 colon = tested on: HCC-2998 colon
A549 NSCLC = tested on: A549 NSCLC
MCF7 breast = tested on: MCF7 breast
UACC-257 melanoma = tested on: UACC-257 melanoma
HCT-116 colon = tested on: HCT-116 colon
NCI-H522 lung = tested on: NCI-H522 lung
MDA-MB-231 breast = tested on: MDA-MB-231 breast
EKVX NSCLC = tested on: EKVX NSCLC
SF-268 CNS = tested on: SF-268 CNS
SK-MEL-5 melanoma = tested on: SK-MEL-5 melanoma
OVCAR-3 ovarian = tested on: OVCAR-3 ovarian
HOP-92 NSCLC = tested on: HOP-92 NSCLC
SK-MEL-28 melanoma = tested on: SK-MEL-28 melanoma
HT29 colon = tested on: HT29 colon
NCI-H23 lung = tested on: NCI-H23 lung
MDA-MB-435 = tested on: MDA-MB-435
TK-10 renal = tested on: TK-10 renal
SK-MEL-2 melanoma = tested on: SK-MEL-2 melanoma
ACHN renal = tested on: ACHN renal
SK-OV-3 ovarian = tested on: SK-OV-3 ovarian
NCI-H226 lung = tested on: NCI-H226 lung
UO-31 renal = tested on: UO-31 renal
BT-549 breast = tested on: BT-549 breast
SNB-19 CNS = tested on: SNB-19 CNS
RPMI-8226 leukemia = tested on: RPMI-8226 leukemia
786-0 renal = tested on: 786-0 renal
DU-145 prostate = tested on: DU-145 prostate
A498 renal = tested on: A498 renal
NCI/ADR-RES ovarian = tested on: NCI/ADR-RES ovarian
PC-3 prostate = tested on: PC-3 prostate
SF-295 CNS = tested on: SF-295 CNS
MOLT-4 leukemia = tested on: MOLT-4 leukemia
T-47D breast = tested on: T-47D breast
LOX IMVI melanoma = tested on: LOX IMVI melanoma
UACC-62 melanoma = tested on: UACC-62 melanoma
HOP-62 NSCLC = tested on: HOP-62 NSCLC
SR leukemia = tested on: SR leukemia
M14 melanoma = tested on: M14 melanoma
CCRF-CEM leukemia = tested on: CCRF-CEM leukemia
COLO 205 colon = tested on: COLO 205 colon
SF-539 CNS = tested on: SF-539 CNS
NCI-H460 lung = tested on: NCI-H460 lung
K-562 leukemia = tested on: K-562 leukemia
SN12C renal = tested on: SN12C renal

SMILES: Cc1cccc(Cc2cnc(NC(=O)CCc3ccc(C)o3)s2)c1
- GI50 (OVCAR-5 ovarian): 0.798 µM
- TGI (OVCAR-5 ovarian): > 100 µM
- GI50 (OVCAR-4 ovarian): 1.23 µM
- TGI (OVCAR-4 ovarian): > 100 µM
- GI50 (SNB-75 CNS): 0.165 µM
- TGI (SNB-75 CNS): 5.67 µM
- GI50 (SW-620 colon): 0.142 µM
- TGI (SW-620 colon): > 100 µM
- GI50 (HL-60(TB) leukemia): 0.161 µM
- TGI (HL-60(TB) leukemia): 0.44 µM
- GI50 (IGROV1 ovarian): 0.555 µM
- TGI (IGROV1 ovarian): > 100 µM
- GI50 (RXF 393 renal): 0.204 µM
- TGI (RXF 393 renal): 3.71 µM
- GI50 (OVCAR-8 ovarian): 0.406 µM
- TGI (OVCAR-8 ovarian): > 100 µM
- GI50 (U251 CNS): 0.293 µM
- TGI (U251 CNS): > 100 µM
- GI50 (HCT-15 colon): 0.0729 µM
- TGI (HCT-15 colon): > 100 µM
- GI50 (KM12 colon): 0.16 µM
- TGI (KM12 colon): > 100 µM
- GI50 (CAKI-1 renal): 0.235 µM
- TGI (CAKI-1 renal): 50.8 µM
- TGI (MALME-3M melanoma): > 100 µM
- GI50 (HS 578T breast): 0.356 µM
- TGI (HS 578T breast): > 95.3 µM
- GI50 (HCC-2998 colon): 0.409 µM
- TGI (HCC-2998 colon): > 100 µM
- GI50 (A549 NSCLC): 0.37 µM
- TGI (A549 NSCLC): > 100 µM
- GI50 (MCF7 breast): 0.0495 µM
- TGI (MCF7 breast): > 100 µM
- GI50 (UACC-257 melanoma): 15.4 µM
- TGI (UACC-257 melanoma): > 100 µM
- GI50 (HCT-116 colon): 0.242 µM
- TGI (HCT-116 colon): > 100 µM
- GI50 (NCI-H522 lung): 0.183 µM
- GI50 (MDA-MB-231 breast): 0.45 µM
- TGI (MDA-MB-231 breast): 23.8 µM
- GI50 (EKVX NSCLC): 0.585 µM
- TGI (EKVX NSCLC): > 100 µM
- GI50 (SF-268 CNS): 0.903 µM
- TGI (SF-268 CNS): > 100 µM
- GI50 (SK-MEL-5 melanoma): 0.107 µM
- TGI (SK-MEL-5 melanoma): 6.08 µM
- GI50 (OVCAR-3 ovarian): 0.192 µM
- TGI (OVCAR-3 ovarian): 0.731 µM
- GI50 (HOP-92 NSCLC): 7.31 µM
- TGI (HOP-92 NSCLC): 98.7 µM
- GI50 (SK-MEL-28 melanoma): 2.06 µM
- TGI (SK-MEL-28 melanoma): > 100 µM
- GI50 (HT29 colon): 0.169 µM
- TGI (HT29 colon): 4.04 µM
- GI50 (NCI-H23 lung): 0.593 µM
- TGI (NCI-H23 lung): > 100 µM
- GI50 (MDA-MB-435): 0.0302 µM
- TGI (MDA-MB-435): 0.12 µM
- GI50 (TK-10 renal): 1.49 µM
- TGI (TK-10 renal): > 100 µM
- GI50 (SK-MEL-2 melanoma): 0.404 µM
- TGI (SK-MEL-2 melanoma): > 100 µM
- GI50 (ACHN renal): 0.526 µM
- TGI (ACHN renal): > 100 µM
- GI50 (SK-OV-3 ovarian): 0.419 µM
- TGI (SK-OV-3 ovarian): > 100 µM
- GI50 (NCI-H226 lung): 8.69 µM
- TGI (NCI-H226 lung): > 100 µM
- GI50 (UO-31 renal): 0.589 µM
- TGI (UO-31 renal): > 100 µM
- GI50 (BT-549 breast): 0.814 µM
- TGI (BT-549 breast): > 100 µM
- GI50 (SNB-19 CNS): 0.37 µM
- TGI (SNB-19 CNS): > 100 µM
- GI50 (RPMI-8226 leukemia): 0.318 µM
- TGI (RPMI-8226 leukemia): > 100 µM
- GI50 (786-0 renal): 0.724 µM
- TGI (786-0 renal): > 100 µM
- GI50 (DU-145 prostate): 0.38 µM
- TGI (DU-145 prostate): > 95.8 µM
- GI50 (A498 renal): 0.343 µM
- TGI (A498 renal): 10.5 µM
- GI50 (NCI/ADR-RES ovarian): 0.228 µM
- TGI (NCI/ADR-RES ovarian): > 100 µM
- GI50 (PC-3 prostate): 0.336 µM
- TGI (PC-3 prostate): > 100 µM
- GI50 (SF-295 CNS): 0.195 µM
- TGI (SF-295 CNS): 12.6 µM
- GI50 (MOLT-4 leukemia): 0.371 µM
- TGI (MOLT-4 leukemia): > 100 µM
- GI50 (T-47D breast): 0.427 µM
- TGI (T-47D breast): > 100 µM
- GI50 (LOX IMVI melanoma): 0.518 µM
- TGI (LOX IMVI melanoma): > 100 µM
- GI50 (UACC-62 melanoma): 0.16 µM
- TGI (UACC-62 melanoma): > 100 µM
- GI50 (HOP-62 NSCLC): 0.345 µM
- TGI (HOP-62 NSCLC): > 55.6 µM
- GI50 (SR leukemia): 0.0543 µM
- TGI (SR leukemia): > 100 µM
- GI50 (M14 melanoma): 0.136 µM
- TGI (M14 melanoma): > 41.4 µM
- GI50 (CCRF-CEM leukemia): 0.234 µM
- TGI (CCRF-CEM leukemia): > 100 µM
- GI50 (COLO 205 colon): 0.227 µM
- TGI (COLO 205 colon): 0.716 µM
- GI50 (SF-539 CNS): 0.202 µM
- TGI (SF-539 CNS): 0.642 µM
- GI50 (NCI-H460 lung): 0.263 µM
- TGI (NCI-H460 lung): > 100 µM
- GI50 (K-562 leukemia): 0.0541 µM
- TGI (K-562 leukemia): > 100 µM
- GI50 (SN12C renal): 0.525 µM
- TGI (SN12C renal): > 100 µM
